Source: paper PMC8113459, “Selective inhibition of cullin 3 neddylation through covalent targeting DCN1 protects mice from acetaminophen-induced liver toxicity” (Nature Communications, 2021)

Target: DCN1 (Homo sapiens, UniProt Q96GG9)
Test: High-resolution LC-tandem mass spectrometry of tryptic peptides
Conditions: for Modifications (DI-548 adduct on DCN1 tryptic peptide): B2 Sequest HT (DI-548) sample, confidence High, not found in Apo sample
Protocol: Equal amounts of proteins (10 μg) were denatured in 8 M urea. Cysteines were reduced with 10 mM DTT at 45 °C for 30 min and alkylated using 50 mM chloroacetamide (RT, 30 min). Upon dilution of urea to <1.2 M, digestion with 250 ng of sequencing grade, modified trypsin (Promega) was carried out overnight at 37 °C. Reaction was terminated by acidification with trifluoroacetic acid (0.1% v/v) and peptides were purified using SepPak C18 cartridge following the manufacturer’s protocol (Waters Corp). An aliquot of the resulting peptides (~2 µg) was resolved on a nanocapillary reverse phase column (Acclaim PepMap C18, 2 μm, 50 cm, Thermo Fisher Scientific) using 0.1% formic acid/acetonitrile gradient at 300 nL/min and directly introduced in to Q Exactive HF mass spectrometer (Thermo Fisher Scientific, San Jose, CA). MS1 scans were acquired at 60 K resolution (AGC target = 3e^6, max IT = 50 ms). Data-dependent high-energy C-trap dissociation MS/MS spectra were acquired for the 20 most abundant ions (Top20) following each MS1 scan (15 K resolution; AGC target = 1e^5; relative CE ~ 28%). Proteins were identified by searching the data against restricted database containing DCN1 protein sequence and common contaminants using Sequest HT (Proteome Discoverer v2.4, Thermo Fisher Scientific). Search parameters included MS1 mass tolerance of 10 ppm and fragment tolerance of 0.02 Da; two missed cleavages were allowed; carbamidomethylation (+57.02146 Da) and DI-1548 adduct (+510.2665 Da) of cysteine, and oxidation of methionine, deamidation of asparagine and glutamine were considered as potential modifications. False discovery rate (FDR) was determined using target decoy validator and proteins/peptides with an FDR of ≤1% were retained for further analysis. The DI-1548 modified peptide PSMs were manually verified.

Chain of DCN1 (Q96GG9 58-259 limits assumed): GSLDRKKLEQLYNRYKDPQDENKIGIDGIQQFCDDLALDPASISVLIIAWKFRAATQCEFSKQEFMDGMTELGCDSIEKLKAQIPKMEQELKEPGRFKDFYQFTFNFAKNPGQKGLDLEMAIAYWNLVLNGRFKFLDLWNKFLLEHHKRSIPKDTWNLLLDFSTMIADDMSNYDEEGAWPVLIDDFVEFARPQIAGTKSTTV

C=C(CN1CCOCC1)C(=O)NC[C@@H](NC(=O)[C@H](Cc1nc2ccc(C(C)C)cc2s1)NC(=O)CC)C1CCCCC1 [DI-1548]
Modifications (DI-548 adduct on DCN1 tryptic peptide) (peptide [R].AATQCEFSK.[Q], DCN_1 [77-85]): 1xDI-548_Haibin [C5] | Modifications (DI-548 adduct on DCN1 tryptic peptide) (peptide [R].AATQCEFSKQEFMDGMTELGCDSIEK.[L], DCN_1 [77-102], 1xCarbamidomethyl [C21] and 1xDeamidated [Q4]): 1xCarbamidomethyl [C21]; 1xDeamidated [Q4]; 1xDI-548_Haibin [C5] | Modifications (DI-548 adduct on DCN1 tryptic peptide) (peptide [R].AATQCEFSKQEFMDGMTELGCDSIEK.[L], DCN_1 [77-102], 1xCarbamidomethyl [C21]): 1xCarbamidomethyl [C21]; 1xDI-548_Haibin [C5] | residue of DCN1 modified (tryptic digested peptides): forms covalent bond with Cys115
